Measurements taken from patent US11992011B2, “Compounds for controlling plant pathogens” (VIB VZW, priority 2017, dated 2024).

Experiments:
Meloidogyne graminicola [1] = assay: Meloidogyne graminicola infection in rice, first experiment (Example 3); assay type: in vivo; conditions: infected rice, 100 μM, median (IQR), n = 8; for Gall number: harvested twelve days after infection; for Galls per AR: per adventitious root
Description: (§1) Seeds were germinated on wet tissue paper at 30° C. in the dark for three days, followed by transfer to individual PVC tubes (for nematode infection) containing SAP (Reversat et al., 1999). SAP (sand-absorbent polymer) is a mixture of fine silica sand and ultra-absorbent acrylic copolymer (DCM AquaPerla, DSM, Grobbendonk, Belgium) in a ratio of 1 kg sand to 1.5 g of dry copolymer.
(§2) Before use, each tube was washed in soapy water and dried in an oven at 70° C. for two days. […] The first two days after transfer, the tubes were covered with a polyethylene film (Saran Film, Dow Chemicals, Midland, USA) to prevent excessive evaporation. Seedlings were watered three times per week with 8 ml of Hoagland solution (Hoagland, 1938).
(§3) M. graminicola was extracted from infected Echinocloa crus-galli roots grown in potting soil at 25° C. Roots were washed until most soil was removed, after which they were cut into short fragments (with special care taken to cut open any outwardly visible galls). The cut material was put in […] pore diameter sieves which were put into a tap water bath at room temperature for three days. The water was then poured over a […] mesh sieve. The sieve surface was washed with approximately 50 ml of non-demineralized water, which was collected into a beaker before it could seep through the sieve.
(§4) The number of nematodes in five 100 μl samples taken from the nematode suspension was counted under a stereo microscope and averaged to determine inoculum concentration. Each plant (grown per the protocol outlined in the previous section) was then inoculated by injecting the desired number of nematodes in the SAP surrounding the root system using a micro-pipette.
(§5) Infection experiments with M. graminicola were performed by inoculating host plants 14 days after transfer to SAP by introducing the desired amount of J2 juveniles next to the root system using a micro pipette. Rice plants (cv. Nipponbare or Kitaake) were inoculated with 250 J2 juveniles per plant; wheat plants (cv. Sahara) were inoculated with 600 J2 juveniles per plant. Plants were harvested 14 days after inoculation. At this point, the plants were phenotyped by measuring the shoot and root length with a ruler, counting the number of adventitious roots and in some experiments by measuring leaf area using the EasyLeafArea software (Easlon and Bloom, 2014) and by determining shoot dry mass after 72 hours of drying in an oven at 70° C. Root systems were then stained in acid fuchsine as described in (Byrd et al., 1983) and left to destain in glycerol with 1 ml/l fuming HCl added for approximately ten days. The number of galls and nematodes was then counted using a binocular microscope.
Rice plants were germinated for three days, transferred to SAP and grown for twelve days. After twelve days, 240 M. graminicola J2 nematodes on average were added to each plant. Plants were harvested twelve days after infection and roots were stained with acid fuchsine to visualize galls and nematodes.

Meloidogyne graminicola [2] = assay: Meloidogyne graminicola infection in rice, second experiment (Example 4); assay type: in vivo; conditions: infected rice, 100 μM; for median number of galls lower compared to untreated controls: 13 days after infection; for plants in which necrosis was present: absent in control plants; for Gall number: harvested 13 days after inoculation; for Gall number / Fraction of empty galls / Galls per adventitious root / Number of J2 / Number of J3 + J4 / Number of adults (with eggs) / Number of adults (without eggs) / Total nematodes: median (IQR); for Likelihood of necrosis: value ± spread
Description: as §1, §2, §3, §4
as §5, with “microscope. […]” for “microscope.”
The second experiment was methodologically similar to the first. This time, plants were grown for 15 days before inoculation with 210 nematodes on average and harvested 13 days after inoculation. […]

Meloidogyne graminicola [3] = assay: M. graminicola infection in wild type and OsWRKY45 knockdown rice (Example 16); assay type: in vivo; conditions: for Likelihood of necrosis / Fraction of empty galls / Fraction of small galls / Gall number / Galls per AR: MDCA/PA spray; for Fraction of empty galls / Fraction of small galls / Gall number / Galls per AR: median (interquartile range); for change of number of galls per root system, WRKY45 treated vs WRKY45 control: WRKY45-RNAi rice; for change of number of galls per root system, WT treated vs WT+CON: wild type rice
Description: as §5
To test the potential involvement of salicylic acid (SA) in MDCA/PA defense enhancement the response of MDCA/PA-treated RNAi-knockdown mutants in OsWRKY45 to nematode infection was examined. The OsWRKY proteins form a family of rice transcription factors that regulate a broad range of cellular processes, most of which are related to abiotic and biotic stress response (Jimmy and Babu, 2015). In keeping with their important role in defense, many OsWRKY genes are controlled by the plant defense hormones jasmonic acid and SA (Ryu et al., 2006; Jimmy and Babu, 2015).
OsWRKY45 is a master regulator of SA-induced defense responses. Knockdown lines in this gene are useful for testing whether MDCA/PA defense enhancement depends on SA signaling, as OsWRKY45 (unlike most other defense genes) is believed to be triggered only by SA (Ryu et al. 2006; incorporated by reference).
Galls were counted and classified by their size and by whether they were empty or not. The presence or absence of necrosis in the root system was also recorded.

OsPAL2 = assay: qRT-PCR in rice roots, OsPAL2 (Example 19); assay type: in vivo, Oryza sativa; conditions: rice cv. Bomba root tissue; 100 μM; harvested 13 days after germination; N=3 pools
Description: (§6) After quality control, qPCR was carried out.

OsPAL4 = assay: qRT-PCR in rice roots, OsPAL4 (Example 19); assay type: in vivo, Oryza sativa; conditions: rice cv. Bomba root tissue; 100 μM; harvested 13 days after germination; N=3 pools
Description: as §6

OsPAL6 = assay: qRT-PCR in rice roots, OsPAL6 (Example 19); assay type: in vivo, Oryza sativa; conditions: rice cv. Bomba root tissue; 100 μM; harvested 13 days after germination; N=3 pools
Description: as §6

OsICS1 = assay: qRT-PCR in rice roots, OsICS1 (Example 19); assay type: in vivo, Oryza sativa; conditions: rice cv. Bomba root tissue; 100 μM; harvested 13 days after germination; N=3 pools
Description: as §6

OsWRKY45 = assay: qRT-PCR in rice roots, OsWRKY45 (Example 19); assay type: in vivo, Oryza sativa; conditions: rice cv. Bomba root tissue; 100 μM; harvested 13 days after germination; N=3 pools
Description: as §6

OsC4H = assay: qRT-PCR in rice roots, OsC4H (Example 19); conditions: rice cv. Bomba root tissue; 100 μM; harvested 13 days after germination; N=3 pools

SMILES	Gall number (Meloidogyne graminicola [1])	Empty galls (Meloidogyne graminicola [1])	Fraction of small galls (Meloidogyne graminicola [1])	Number of J2 (Meloidogyne graminicola [1])	Number of J3 + J4 (Meloidogyne graminicola [1])	Number of adults (with eggs) (Meloidogyne graminicola [1])	Number of adults (without eggs) (Meloidogyne graminicola [1])	Total nematodes (Meloidogyne graminicola [1])	Galls per AR (Meloidogyne graminicola [1])	median number of galls lower compared to untreated controls (Meloidogyne graminicola [2]) [%]	plants in which necrosis was present (Meloidogyne graminicola [2])	Gall number (Meloidogyne graminicola [2])	Fraction of empty galls (Meloidogyne graminicola [2])	Galls per adventitious root (Meloidogyne graminicola [2])	Number of J2 (Meloidogyne graminicola [2])	Number of J3 + J4 (Meloidogyne graminicola [2])	Number of adults (with eggs) (Meloidogyne graminicola [2])	Number of adults (without eggs) (Meloidogyne graminicola [2])	Total nematodes (Meloidogyne graminicola [2])	Likelihood of necrosis (Meloidogyne graminicola [2])	other results
O=C(O)/C=C/c1ccc2c(c1)OCO2 [MDCA, 3,4-methylenedioxycinnamic acid]	11.5 (IQR = 3.3)	0.5 (IQR = 1.3)	0.84 (IQR = 0.13)	7.5 (IQR = 8.0)	8.0 (IQR = 8.3)	3.0 (IQR = 13.3)	20.0 (IQR = 7.3)	41.5 (IQR = 14.3)	0.78 (IQR = 0.22)	28	roughly 75%	8.0 (IQR = 1.0)	0.11 (IQR = 0.03)	0.80 (IQR = 0.17)	0.0 (IQR = 0.0)	7.0 (IQR = 5.0)	0.0 (IQR = 1.0)	10.0 (IQR = 2.0)	17.0 (IQR = 5.0)	0.78 ± 0.44	Likelihood of necrosis (Meloidogyne graminicola [3]; WRKY45-RNAi knockdown rice): 0.50 ± 0.53; Fraction of empty galls (Meloidogyne graminicola [3]; WRKY45-RNAi knockdown rice): 0.09 (0.01); Fraction of small galls (Meloidogyne graminicola [3]; WRKY45-RNAi knockdown rice): 0.94 (0.03); Gall number (Meloidogyne graminicola [3]; WRKY45-RNAi knockdown rice): 52.0 (10.8); Galls per AR (Meloidogyne graminicola [3]; WRKY45-RNAi knockdown rice): 3.3 (0.7); change of number of galls per root system, WRKY45 treated vs WRKY45 control (Meloidogyne graminicola [3]): −23%; Likelihood of necrosis (Meloidogyne graminicola [3]; Wild type rice): 0.63 ± 0.52; Fraction of empty galls (Meloidogyne graminicola [3]; Wild type rice): 0.02 (0.04); Fraction of small galls (Meloidogyne graminicola [3]; Wild type rice): 0.86 (0.07); Gall number (Meloidogyne graminicola [3]; Wild type rice): 36.5 (10.3); Galls per AR (Meloidogyne graminicola [3]; Wild type rice): 2.3 (0.6); change of number of galls per root system, WT treated vs WT+CON (Meloidogyne graminicola [3]): −42%; Fold change vs. control, OsPAL2 expression (OsPAL2): 1.86; Fold change vs. control, OsPAL4 expression (OsPAL4): 2.38; Fold change vs. control, OsPAL6 expression (OsPAL6): 1.40; Fold change vs. control, OsICS1 expression (OsICS1): 1.73; Fold change vs. control, OsWRKY45 expression (OsWRKY45): 1.67; Fold change vs. control, OsC4H expression (OsC4H): 3.73
O=C(O)c1ccc2c(c1)OCO2 [PA, Piperonylic acid]	12.5 (IQR = 4.0)	0.0 (IQR = 1.0)	0.76 (IQR = 0.08)	9.0 (IQR = 8.3)	5.0 (IQR = 5.5)	0.5 (IQR = 1.3)	19.5 (IQR = 11.8)	32.5 (IQR = 17.8)	0.83 (IQR = 0.29)	36	roughly 75%	7.0 (IQR = 1.8)	0.13 (IQR = 0.17)	0.62 (IQR = 0.13)	0.0 (IQR = 1.0)	8.0 (IQR = 2.5)	0.0 (IQR = 0.0)	5.0 (IQR = 1.8)	13.5 (IQR = 2.5)	0.70 ± 0.48	Likelihood of necrosis (Meloidogyne graminicola [3]; WRKY45-RNAi knockdown rice): 0.60 ± 0.52; Fraction of empty galls (Meloidogyne graminicola [3]; WRKY45-RNAi knockdown rice): 0.02 (0.03); Fraction of small galls (Meloidogyne graminicola [3]; WRKY45-RNAi knockdown rice): 0.91 (0.05); Gall number (Meloidogyne graminicola [3]; WRKY45-RNAi knockdown rice): 39.0 (20.3); Galls per AR (Meloidogyne graminicola [3]; WRKY45-RNAi knockdown rice): 2.2 (0.8); change of number of galls per root system, WRKY45 treated vs WRKY45 control (Meloidogyne graminicola [3]): −41%; Likelihood of necrosis (Meloidogyne graminicola [3]; Wild type rice): 0.78 ± 0.44; Fraction of empty galls (Meloidogyne graminicola [3]; Wild type rice): 0.03 (0.03); Fraction of small galls (Meloidogyne graminicola [3]; Wild type rice): 0.93 (0.06); Gall number (Meloidogyne graminicola [3]; Wild type rice): 33.0 (10.0); Galls per AR (Meloidogyne graminicola [3]; Wild type rice): 1.8 (0.5); change of number of galls per root system, WT treated vs WT+CON (Meloidogyne graminicola [3]): −42%; Fold change vs. control, OsPAL2 expression (OsPAL2): 1.29; Fold change vs. control, OsPAL4 expression (OsPAL4): 3.04; Fold change vs. control, OsPAL6 expression (OsPAL6): 1.26; Fold change vs. control, OsICS1 expression (OsICS1): 1.36; Fold change vs. control, OsWRKY45 expression (OsWRKY45): 1.30; Fold change vs. control, OsC4H expression (OsC4H): 9.87
